In patent US7947733B2, “Phosphorylated pyrone analogs and methods” (Limerick BioPharma, priority 2007, dated 2011):
Where “and” joins values, the source holds several entries; their conditions need not be identical. Identical values can stand only once.

Experiments:
[1] = tested on: Transporter, Monoamine rabbit; experiment: Secondary toxicity screen (MDS Pharma Services), radioligand binding; settings: 10 μM
Experimental: (§1) A secondary pharmacological screening of molecules of interest at a fixed concentration is often practiced in the pharmaceutical industry in order to evaluate the effect of the compound on secondary targets that could result in untoward toxicity in-vivo. These secondary screens are well known in the art and can be carried out by labs which specialize in these tests such as MDS-Panlabs and CEREP. A secondary toxicity screen is performed with Quercetin-3′-O-phosphate at a concentration of 10 μM against 122 targets in enzyme, radioligand binding, and cellular assays by MDS Pharma Services by methods well known in the art. Inhibition is found in only the following targets (percent inhibition at 10 μM in parentheses): ATPase, Na+/K+, Heart, Pig (65%), Nitric Oxide Synthase, Endothelial (eNOS) (72%), Protein Tyrosine Kinase, FGFR2 (94%), Protein Tyrosine Kinase, FGFR1(96%), Protein Tyrosine Kinase, Insulin Receptor (91%), Protein Tyrosine Kinase, (82%), Protein Tyrosine Kinase, ZA70 (ZAP-70) (74%), UDP Glucuronosyltransferase, UGT1A1 (52%), Adenosine A1 (50%), Adrenergic α2A (57%), Dopamine D47 (51%), Peripheral Benzodiazepine Receptor (PBR) (53%), Transporter, Monoamine rabbit (68%), Serotonin (5-Hydroxytryptamine) 5-HT1A (62%).

[2] = tested on: Peripheral Benzodiazepine Receptor (PBR); experiment: as above; settings: 10 μM
Experimental: as §1

[3] = tested on: Dopamine D47; experiment: as above; settings: 10 μM
Experimental: as §1

[4] = molecular target: T1, AdenosineA1 (Homo sapiens, UniProt P30542); experiment: GTPγS functional assay; format: biochemical; settings: 10 μM
T1 sequence (P30542 1-326): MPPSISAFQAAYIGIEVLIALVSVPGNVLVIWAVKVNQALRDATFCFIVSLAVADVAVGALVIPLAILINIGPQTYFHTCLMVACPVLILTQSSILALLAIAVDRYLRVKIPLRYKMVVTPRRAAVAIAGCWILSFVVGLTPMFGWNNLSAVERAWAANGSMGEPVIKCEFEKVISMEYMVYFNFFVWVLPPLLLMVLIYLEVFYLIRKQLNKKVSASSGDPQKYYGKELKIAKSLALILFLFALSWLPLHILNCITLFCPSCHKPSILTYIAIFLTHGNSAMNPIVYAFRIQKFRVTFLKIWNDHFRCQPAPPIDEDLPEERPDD
Experimental: The compound is additionally tested in AdenosineA1, AdrenergicA2A, DopamineD25, Histamine H1-, and μ-Opiate GTPγS functional assays using a concentration of 10 μM.

[5] = Solubility of quercetin-3′-O-phosphate in water; format: physicochemical; settings: about pH 8 (about 4 g in 50 mL)
Experimental: The resultant solid from concentration of the decantate is added acetonitrile (500 mL) followed by water (50 mL) then 1N hydrochloric acid (approx. 20 mL) until a pH of about 5 is achieved. The solution is concentrated to a volume of about 120 mL. The residue is purified with a 600 g, C-18 reverse phase column with 60 mL injections in a gradient. The gradient is 100% water (1 L), 9:1 water:MeOH (1 L), 8:2 water:MeOH (1 L), 7:3 water:MeOH (1 L), 1:1 water:MeOH. The desired product begins to elute after about 500 mL of 1:1 water:MeOH. The fractions are combined and concentrated. The residue is dissolved in water (40 mL) and solid potassium carbonate (approx. 3 g) is added until pH=8. The pH is adjusted to about 2 with 50% sulfuric acid resulting in the formation of a precipitate. The solid is collected, which contained approximately 10% TEA. The solid is suspended in water (50 mL), and the pH is adjusted to about 8 with solid potassium carbonate to produce a yellow solution. The resultant yellow solution is treated dropwise with 50% sulfuric acid until a pH of about 2 is reached, resulting in the precipitation of a solid. The solid is collected and slurried in water (75 mL). The solid is collected and dried giving 4 g, representing 12% of quercetin-3′-O-phosphate. […]

[6] = tested on: kidney of rats; experiment: Renal pathology in rats co-administered with quercetin-3′-O-phosphate and tacrolimus; format: in vivo, rat
Experimental: Tissue is removed from the kidney of rats treated with tacrolimus (Prograf®) at 0.5 mg/kg and inert vehicle, and from rats treated with tacrolimus (Prograf®) at 0.5 mg/kg and quercetin-3′-O-phosphate (Q-Phosphate) at 11 mg/kg, 28 mg/kg, and at 114 mg/kg for 25 days. […] The tissue from rats treated with Q-Phosphate and tacrolimus show no vacuoles.

[7] = Secondary toxicity screen, overall finding; settings: 10 μM against 122 targets
Experimental: as §1

[8] = tested on: rats; experiment: Blood glucose levels in rats co-administered with quercetin-3′-O-phosphate and tacrolimus; format: in vivo, rat; settings: for Blood glucose, Mean change from Prograf ® control / Blood glucose, Mean change from Day 1: Q-Phosphate 114 mg/kg + Prograf 0.5 mg/kg i.p.; for Blood glucose, Mean: Q-Phosphate 114 mg/kg i.p. Day 11 to Day 25 + Prograf 0.5 mg/kg i.p., 5 rats; for Blood glucose, individual rats: Q-Phosphate 114 mg/kg i.p. once daily Day 11 to Day 25 + Prograf 0.5 mg/kg i.p. Day 1 to Day 25
Experimental: One set of 5 rats is treated from day 1 to day 25 with inert vehicle 2 intraperitoneally and treated from day 11 to day 25 with inert vehicle 1 intraperitoneally. […] A third set 5 of rats is treated from day 1 to day 25 with tacrolimus (Prograf®) intraperitoneally at 0.5 mg/kg, and treated from day 11 to day 25 intraperitoneally with quercetin-3′-O-phosphate (Q-Phosphate) at 114 mg/kg. The blood glucose level in the rats is measured on days 1, 10, 15, 20, and 25.

O=c1c(O)c(-c2ccc(O)c(OP(=O)(O)O)c2)oc2cc(O)cc(O)c12 [Quercetin-3′-O-phosphate]
percent inhibition [1]: 68% | percent inhibition [2]: 53% | percent inhibition [3]: 51% | antagonist activity [4]: 48% | solubility [5]: ≥ 80 mg/mL | protective effect with respect to the kidneys ([6]; co-administered with tacrolimus): significant protective effect | vacuolation of kidney tissue ([6]; tacrolimus 0.5 mg/kg and Q-Phosphate at 11, 28 and 114 mg/kg, 25 days): no vacuoles | toxicity properties (findings of the toxicology screen) [7]: low toxicity properties | Blood glucose, Mean change from Prograf ® control ([8]; Day 1): +0.02 g/l | Blood glucose, Mean ([8]; Day 1): 1.29 g/L | Blood glucose, individual rats ([8]; Day 1): 1.18 g/L and 1.19 g/L and 1.41 g/L and 1.36 g/L and 1.30 g/L | Blood glucose, Mean change from Day 1 ([8]; Day 10): +0.65 g/l | Blood glucose, Mean change from Prograf ® control ([8]; Day 10): +0.45 g/l | Blood glucose, Mean ([8]; Day 10): 1.94 g/L | Blood glucose, individual rats ([8]; Day 10): 1.50 g/L and 2.41 g/L and 2.19 g/L and 1.51 g/L and 2.10 g/L | Blood glucose, Mean change from Day 1 ([8]; Day 15): +0.99 g/l | Blood glucose, Mean change from Prograf ® control ([8]; Day 15): -0.26 g/L | Blood glucose, Mean ([8]; Day 15): 2.28 g/L | Blood glucose, individual rats ([8]; Day 15): 2.07 g/L and 2.90 g/L and 3.16 g/L and 1.83 g/L and 1.42 g/L | Blood glucose, Mean change from Day 1 ([8]; Day 20): +1.55 g/l | Blood glucose, Mean change from Prograf ® control ([8]; Day 20): -0.09 g/L | Blood glucose, Mean ([8]; Day 20): 2.84 g/L | Blood glucose, individual rats ([8]; Day 20): 1.99 g/L and 3.28 g/L and 3.67 g/L and 3.58 g/L and 1.67 g/L | Blood glucose, Mean change from Day 1 ([8]; Day 25): +0.87 g/l | Blood glucose, Mean change from Prograf ® control ([8]; Day 25): -0.39 g/L | Blood glucose, Mean ([8]; Day 25): 2.16 g/L | Blood glucose, individual rats ([8]; Day 25): 2.34 g/L and 2.54 g/L and 2.04 g/L and 2.67 g/L and 1.23 g/L | effect on tacrolimus induced hyperglycemia ([8]; rats, Q-Phosphate 114 mg/kg i.p. with tacrolimus 0.5 mg/kg): can attenuate tacrolimus induced hyperglycemia
